Assay results taken from patent US11753411B2, “Substituted pyrazolo[1,5-a]pyrimidines as TYK2 pseudokinase ligands” (Ventyx Biosciences, Inc., priority 2019, dated 2023).

System: IFN-a/Jak1 Tyk2
Assay: Co-stimulation assay in lysed whole blood: IFNa (JAK1/TYK2) stimulated STAT1 phosphorylation
Assay type: cell-based
Conditions: Homo sapiens, 20 min, 100 ng/mL IFNa (with 10 ng/mL GM-CSF), pSTAT by flow cytometry
Procedure: Example 12: Co-Stimulation Assay in Lysed Whole Blood; JAK2: GM-CSF Stimulated STAT5 Phosphorylation and JAK1/TYK2 Stimulated STAT1 Phosphorylation Assay
Human Blood Lysis Using Abcam's RBC Lysis Buffer
Dilute RBC lysis buffer to 1× in distilled water. Add 2 mL blood to 38 mL of 1×RBC-lysis buffer. Incubate for 15 mins at RT, in dark. Spin at 300 g, 5 mins, to collect the pellet. Re-lyse if necessary. Re-suspend pellet in 5 mL of cRPMI.
Compound and Cytokine Treatment
Aliquot 80 μL of lysed human blood in to wells of 96 deep-well plate. Add 10 μl of (10× conc.) of different concentrations of compounds to all wells except controls (unstained and unstimulated) and mix it with the help of 100 uL multichannel. Add 10 uL of RPMI media in controls. For dilution of compounds and dilution range please refer Appendix. Incubate on water bath or CO2 incubator for 1 hour at 37° C. Add 10 μl of (10× conc.) of cytokine mix (GM-CSF and IFNa) (final conc.10 ng/mL of GM-CSF and 100 ng/mL of IFNa) to each well except unstimulated and unstained controls and incubate further for 20 minutes on water bath at 37° C.
Add 900 μL of prewarmed 1× Fix/Lyse solution (Appendix) and mix it properly using 1000 μl multichannel, incubate further on water bath at 37° C. for 10 minutes (which includes time of addition). Centrifuge at 800×g for 5 minutes at 40° C.; remove 900 uL of supernatant and add 900 μL of 1×PBS. Centrifuge at 800×g for 5 minutes at 40° C., remove 900 μL of supernatant. Wash one more time with 900 μL of PBS (optional) and resuspend pellets in 100 uL of PBS.
Disrupt the pellet by gentle tapping and resuspend in 1000 μL of BD Phosflow Perm Buffer III and incubate plate on ice for 30 minutes. Centrifuge plate at 800×g for 5 minutes at 40° C. Wash two more times with 1000 μL of BD Pharmingen Stain Buffer.
Disrupt the pellet by gentle tapping. Resuspend pellets in 100 uL of Stain Buffer and add 5 μL of pSTAT5_AF488 Ab and 5 uL of pSTAT_PE in all wells except unstained control and mix properly using 200 μl multichannel, incubate overnight at […]. Add 900 μL of wash buffer and centrifuge at 1800 rpm for 3 minutes at 40° C. Wash one more time with 1000 μL of BD Pharmingen Stain Buffer. Finally resuspend the pellet in 300 uL of BD Pharmingen Stain Buffer. Transfer the cells to 96-well v-bottom plate and acquire the cells in Beckman Coulter CytExpert. Acquiring cells in Flow Cytometer: Keep the threshold value to 250 and cell concentration should not exceed 100-500 cells/μL. Acquire at least 5,000-10,000 cells.
RPMI 1640 Complete Medium: RPMI 1640 media+10% FBS.
Cytokine dilution: 1) GM-CSF Stock at 100 ug/mL. Prepare an intermediate dilution of 1 ug/mL by adding 2 uL of stock into 198 uL of cRPMI. Further dilute to 100 ng/mL by adding 100 uL of the intermediate stock to 900 uL of cRPMI. 2) IFNa Stock at 200 ug/mL. Dilute IFNa stock 1:200 by adding 5 uL of stock into the 1000 uL of 100 ng/mL GM-CSF working stock as above to give a combined working stock of 1000 ng/mL of IFNa and 100 ng/mL GM-CSF (10×). Keep it on ice until used.
Lyse/Fix buffer preparation: Dilute 5× Lyse/Fix buffer to 1× using MQ water and keep at 37° C. until used.
BD Phosflow perm buffer III: Keep on ice/fridge.

IC50, 1 to 10 µM:
CNc1cc(Nc2cccc3c2OCCO3)nc2c(NC(=O)NCCO)cnn12 [Compound 145, 1-(5-((2,3-dihydrobenzo[b][1,4]dioxin-5-yl)amino)-7-(methylamino)pyrazolo[1,5-a]pyrimidin-3-yl)-3-(2-hydroxyethyl)urea]
CNC(=O)Nc1cnn2c(NC)cc(Nc3cccnc3OC3CCOCC3)nc12 [Compound 94, 1-methyl-3-(7-(methylamino)-5-((2-((tetrahydro-2H-pyran-4-yl)oxy)pyridin-3-yl)amino)pyrazolo[1,5-a]pyrimidin-3-yl)urea]
CNc1cc(Nc2cc(OC)cc3c2OCCO3)nc2c(NC(=O)NC3CC3)cnn12 [Compound 84, 1-cyclopropyl-3-(5-((7-methoxy-2,3-dihydrobenzo[b][1,4]dioxin-5-yl)amino)-7-(methylamino)pyrazolo[1,5-a]pyrimidin-3-yl)urea]
CNC(=O)Nc1cnn2c(NC)cc(Nc3cccc(Cl)c3OC)nc12 [Compound 63, 1-(5-((3-chloro-2-methoxyphenyl)amino)-7-(methylamino)pyrazolo[1,5-a]pyrimidin-3-yl)-3-methylurea]
CNC(=O)Nc1cnn2c(NC)cc(-c3c[nH]c4ncccc34)nc12 [Compound 88, 1-methyl-3-(7-(methylamino)-5-(1H-pyrrolo[2,3-b]pyridin-3-yl)pyrazolo[1,5-a]pyrimidin-3-yl)urea]
CNc1cc(Nc2cccc3c2OCCO3)nc2c(NC(=O)NC3CCC3C#N)cnn12 (stereo not shown) [Compound 43, 1-(2-cyanocyclobutyl)-3-(5-((2,3-dihydrobenzo[b][1,4]dioxin-5-yl)amino)-7-(methylamino)pyrazolo[1,5-a]pyrimidin-3-yl)urea]
CNc1cc(Nc2cccnc2OC(F)F)nc2c(NC(=O)N[C@@H]3C[C@@H]3F)cnn12 [Compound 171, 1-(5-((2-(difluoromethoxy)pyridin-3-yl)amino)-7-(methylamino)pyrazolo[1,5-a]pyrimidin-3-yl)-3-((1R,2S)-2-fluorocyclopropyl)urea]
CNC(=O)Nc1cnn2c(NC)cc(-c3cn(C4COC4)c4ncccc34)nc12 [Compound 86, 1-methyl-3-(7-(methylamino)-5-(1-(oxetan-3-yl)-1H-pyrrolo[2,3-b]pyridin-3-yl)pyrazolo[1,5-a]pyrimidin-3-yl)urea]
CNC(=O)Nc1cnn2c(NC)cc(Nc3cccc4c3OC(F)(F)O4)nc12 [Compound 115, 1-(5-((2,2-difluorobenzo[d][1,3]dioxol-4-yl)amino)-7-(methylamino)pyrazolo[1,5-a]pyrimidin-3-yl)-3-methylurea]

IC50, ≥ 10 µM:
CNc1cc(Nc2c(F)c(F)cc3c2OCCO3)nc2c(NC(=O)N[C@@H]3C[C@@H]3F)cnn12 [Compound 61, 1-(5-((6,7-difluoro-2,3-dihydrobenzo[b][1,4]dioxin-5-yl)amino)-7-(methylamino)pyrazolo[1,5-a]pyrimidin-3-yl)-3-((1R,2S)-2-fluorocyclopropyl)urea]
CNc1cc(Nc2cccc3nccnc23)nc2c(NC(=O)NC3CC3O)cnn12 (stereo not shown) [Compound 30, 1-(2-hydroxycyclopropyl)-3-(7-(methylamino)-5-(quinoxalin-5-ylamino)pyrazolo[1,5-a]pyrimidin-3-yl)urea]
CNc1cc(Nc2cc(C)cc(C)c2)nc2c(NC(=O)N[C@@H]3C[C@@H]3F)cnn12 [Compound 60, 1-(5-((3,5-dimethylphenyl)amino)-7-(methylamino)pyrazolo[1,5-a]pyrimidin-3-yl)-3-((1R,2S)-2-fluorocyclopropyl)urea]

IC50, < 1 µM:
CNc1cc(Nc2cccc3nccnc23)nc2c(NC(=O)N[C@@H]3C[C@@H]3F)cnn12 [Compound 44, 1-((1R,2S)-2-fluorocyclopropyl)-3-(7-(methylamino)-5-(quinoxalin-5-ylamino)pyrazolo[1,5-a]pyrimidin-3-yl)urea]
CNc1cc(Nc2cc(F)cc3c2OCCO3)nc2c(NC(=O)NC3CC3)cnn12 [Compound 69, 1-cyclopropyl-3-(5-((7-fluoro-2,3-dihydrobenzo[b][1,4]dioxin-5-yl)amino)-7-(methylamino)pyrazolo[1,5-a]pyrimidin-3-yl)urea]
CNc1cc2nc3c(cnn13)NC(=O)NCCc1cccc(c1)N2 [Compound 25, (1^3E,1^4E)-1^7-(methylamino)-2,6,8-triaza-1(5,3)-pyrazolo[1,5-a]pyrimidina-3(1,3)-benzenacyclooctaphan-7-one]
CNc1cc(Nc2cc(F)cc3c2OCCO3)nc2c(NC(=O)N[C@H]3C[C@@H]3F)cnn12 [Compound 41, 1-(5-((7-fluoro-2,3-dihydrobenzo[b][1,4]dioxin-5-yl)amino)-7-(methylamino)pyrazolo[1,5-a]pyrimidin-3-yl)-3-((1S,2S)-2-fluorocyclopropyl)urea]
CNC(=O)Nc1cnn2c(NC)cc(Nc3cc(OC)cc(OC)c3)nc12 [Compound 70, 1-(5-((3,5-dimethoxyphenyl)amino)-7-(methylamino)pyrazolo[1,5-a]pyrimidin-3-yl)-3-methylurea]
[2H]C([2H])([2H])Nc1cc(Nc2cccc3c2OCCO3)nc2c(NC(=O)NC)cnn12 [Compound 13, 1-(5-((2,3-dihydrobenzo[b][1,4]dioxin-5-yl)amino)-7-((methyl-d3)amino)pyrazolo[1,5-a]pyrimidin-3-yl)-3-methylurea]
CNc1cc(Nc2cccc3c2OCCO3)nc2c(NC(=O)N[C@@H](C)C#N)cnn12 [Compound 121, (S)-1-(1-cyanoethyl)-3-(5-((2,3-dihydrobenzo[b][1,4]dioxin-5-yl)amino)-7-(methylamino)pyrazolo[1,5-a]pyrimidin-3-yl)urea]
CNC(=O)Nc1cnn2c(NC)cc(Nc3cc(C)cc(C)c3)nc12 [Compound 152, 1-(5-((3,5-dimethylphenyl)amino)-7-(methylamino)pyrazolo[1,5-a]pyrimidin-3-yl)-3-methylurea]
[2H]C1([2H])Oc2cc(F)cc(Nc3cc(NC)n4ncc(NC(=O)N[C@@H]5C[C@@H]5F)c4n3)c2OC1([2H])[2H] [Compound 182, 1-(5-((7-fluoro-2,3-dihydrobenzo[b][1,4]dioxin-5-yl-2,2,3,3-d4)amino)-7-(methylamino)pyrazolo[1,5-a]pyrimidin-3-yl)-3-((1R,2S)-2-fluorocyclopropyl)urea]
CNC(=O)Nc1cnn2c(NC)cc(Nc3cccnc3OC)nc12 [Compound 164, 1-(5-((2-methoxypyridin-3-yl)amino)-7-(methylamino)pyrazolo[1,5-a]pyrimidin-3-yl)-3-methylurea]
CNc1cc(Nc2cccc3c2OCCO3)nc2c(NC(=O)NC3CCC3)cnn12 [Compound 93, 1-cyclobutyl-3-(5-((2,3-dihydrobenzo[b][1,4]dioxin-5-yl)amino)-7-(methylamino)pyrazolo[1,5-a]pyrimidin-3-yl)urea]
CNC(=O)Nc1cnn2c(NC)cc(Nc3cc(Cl)cc4c3OCCO4)nc12 [Compound 77, 1-(5-((7-chloro-2,3-dihydrobenzo[b][1,4]dioxin-5-yl)amino)-7-(methylamino)pyrazolo[1,5-a]pyrimidin-3-yl)-3-methylurea]
CNc1cc(Nc2cccc3c2OCCO3)nc2c(NC(=O)NC3CC(CO)C3)cnn12 (stereo not shown) [Compound 47, 1-(5-((2,3-dihydrobenzo[b][1,4]dioxin-5-yl)amino)-7-(methylamino)pyrazolo[1,5-a]pyrimidin-3-yl)-3-(3-(hydroxymethyl)cyclobutyl)urea]
